Measurements: ChEMBL document CHEMBL4270624, “Synthesis and antibacterial evaluation of 13-substituted cycloberberine derivatives as a novel class of anti-MRSA agents” (Eur J Med Chem, 2018)
Blank lines part the entries; values can stand above or below the compound they belong to.

How the values were obtained:
[1] = AUC (0 to t) in Sprague-Dawley rat at 1 mg/kg, iv administered as single dose; assay type: ADME, organism-based; conditions: in vivo
[2] = AUC (0 to t) in Sprague-Dawley rat at 5 mg/kg, po administered as single dose; assay type: ADME, organism-based; conditions: in vivo
Staphylococcus aureus [3] = experiment: Antibacterial activity against methicillin-resistant Staphylococcus aureus 16-34 clinical isolate after 18 hrs by agar dilution method; assay type: functional; conditions: 16-34, 18 h
Staphylococcus aureus [4] = experiment: Antibacterial activity against methicillin-resistant Staphylococcus aureus ATCC BAA-976 after 18 hrs by agar dilution method; assay type: functional; conditions: ATCC BAA-976, 18 h
[5] = Cmax in Sprague-Dawley rat at 5 mg/kg, po administered as single dose; assay type: ADME, organism-based; parameters: dose 5 mg/kg, route oral; conditions: in vivo
Staphylococcus aureus [6] = experiment: Antibacterial activity against methicillin-resistant Staphylococcus aureus 16-30 clinical isolate after 18 hrs by agar dilution method; assay type: functional; conditions: 16-30, 18 h
[7] = Toxicity in iv dosed Kunming mouse administered as single dose measured for 7 days; assay type: organism-based; conditions: in vivo
[8] = Oral bioavailability in Sprague-Dawley rat at 5 mg/kg administered as single dose; assay type: ADME, organism-based; conditions: in vivo
Staphylococcus aureus [9] = experiment: Antibacterial activity against methicillin-sensitive Staphylococcus aureus ATCC 29213 after 18 hrs by agar dilution method; assay type: functional; conditions: ATCC 29213, 18 h
[10] = Mean residence time (0 to t) in Sprague-Dawley rat at 1 mg/kg, iv administered as single dose; assay type: ADME, organism-based; conditions: in vivo
Staphylococcus aureus [11] = experiment: Antibacterial activity against methicillin-sensitive Staphylococcus aureus 16-1 clinical isolate after 18 hrs by agar dilution method; assay type: functional; conditions: 16-1, 18 h
[12] = Stability of the compound in Sprague-Dawley rat whole blood assessed as parent compound remaining after 1 hr by LC-MS/MS analysis; assay type: ADME, tissue-based; conditions: read-out: Stability
Staphylococcus aureus [13] = experiment: Antibacterial activity against methicillin-resistant Staphylococcus aureus 13-18 clinical isolate after 18 hrs by agar dilution method; assay type: functional; conditions: 13-18, 18 h
[14] = Half life in Sprague-Dawley rat at 5 mg/kg, po administered as single dose; assay type: ADME, organism-based; conditions: in vivo
Staphylococcus aureus [15] = experiment: Antibacterial activity against methicillin-resistant Staphylococcus aureus ATCC 33591 after 18 hrs by agar dilution method; assay type: functional; conditions: ATCC 33591, 18 h
[16] = Half life in Sprague-Dawley rat at 1 mg/kg, iv administered as single dose; assay type: ADME, organism-based; conditions: in vivo
[17] = Mean residence time (0 to t) in Sprague-Dawley rat at 5 mg/kg, po administered as single dose; assay type: ADME, organism-based; conditions: in vivo
Staphylococcus aureus [18] = experiment: Antibacterial activity against methicillin-resistant Staphylococcus aureus ATCC 43300 after 18 hrs by agar dilution method; assay type: functional; conditions: ATCC 43300, 18 h
Staphylococcus aureus [19] = experiment: Antibacterial activity against methicillin-resistant Staphylococcus aureus 13-23 clinical isolate after 18 hrs by agar dilution method; assay type: functional; conditions: 13-23, 18 h
[20] = Stability of the compound in Sprague-Dawley rat whole blood assessed as parent compound remaining after 24 hrs by LC-MS/MS analysis; assay type: ADME, tissue-based; conditions: read-out: Stability
[21] = Tmax in Sprague-Dawley rat at 5 mg/kg, po administered as single dose; assay type: ADME, organism-based; conditions: in vivo
Staphylococcus aureus [22] = experiment: Antibacterial activity against methicillin-resistant Staphylococcus aureus ATCC BAA-1708 after 18 hrs by agar dilution method; assay type: functional; conditions: ATCC BAA-1708, 18 h
[23] = Stability of the compound in Sprague-Dawley rat whole blood assessed as parent compound remaining after 0.5 hrs by LC-MS/MS analysis; assay type: ADME, tissue-based; conditions: read-out: Stability

SMILES: COc1ccc2c(c[n+]3c4c2cc(Cc2ccccc2C)c2c5c(cc(c24)CC3)OCO5)c1OC.[Br-]
AUC(0-t) [1]: 724 ng·h/mL
AUC(0-t) [2]: 28.3 ng·h/mL
MIC (Staphylococcus aureus [3]): 2 µg/mL
MIC (Staphylococcus aureus [4]): 1 µg/mL
Cmax [5]: 11.7 ng/mL
MIC (Staphylococcus aureus [6]): 4 µg/mL
LD50 at 168 h [7]: 65.6 mg/kg
bioavailability [8]: 0.8%
MIC (Staphylococcus aureus [9]): 4 µg/mL
MRT last [10]: 4.3 h
MIC (Staphylococcus aureus [11]): 2 µg/mL
remaining at 1 h [12]: 94.2%
MIC (Staphylococcus aureus [13]): 2 µg/mL
half-life [14]: 1.5 h
MIC (Staphylococcus aureus [15]): 2 µg/mL
half-life [16]: 7.2 h
MRT last [17]: 2.1 h
MIC (Staphylococcus aureus [18]): 2 µg/mL
MIC (Staphylococcus aureus [19]): 2 µg/mL
remaining at 24 h [20]: 80.9%
Tmax [21]: 1 h
MIC (Staphylococcus aureus [22]): 2 µg/mL

remaining at 0.5 h [23]: 42.9%
remaining at 1 h [12]: 10.9%
SMILES: CCOC(=O)[C@H](CCc1ccccc1)N[C@@H](C)C(=O)N1CCC[C@H]1C(=O)O [ENALAPRIL]
